Tests used:
[1] = target: T1, membrane-bound A-protein (Am), purified from bovine rod outer segments, N-terminus SEQ ID NO:1 (Bos taurus, UniProt P21457); assay: GTPase assay (hydrolysis of [γ-32P]GTP); assay type: biochemical
T1 sequence (P21457 2-202): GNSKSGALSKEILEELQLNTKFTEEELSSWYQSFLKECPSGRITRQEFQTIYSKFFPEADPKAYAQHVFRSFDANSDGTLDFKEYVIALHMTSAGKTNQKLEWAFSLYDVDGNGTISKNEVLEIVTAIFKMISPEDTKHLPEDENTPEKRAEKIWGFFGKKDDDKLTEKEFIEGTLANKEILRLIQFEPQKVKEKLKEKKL
Description: (§1) GTP (2.8 Ci/mmol) or 88.8 to 177.5 nM [γ-^32P] […] The stripped ROS membranes (containing rhodopsin as the receptor) were prepared by washing ROS membranes 3 times in buffer C(100 mM NaCl, 20 mM Tris-HCl, pH 7.0, 1 mM MgCl2) and 3 times in water containing 0.01% polyoxyethylene 23 lauryl ether (Brij 35™ nonionic detergent, Sigma Chemical Co.). The stripped membranes were resuspended in buffer D (10 mM Tris-HCl, pH 7.0, 0.1 mM EGTA) prior to use.
(§2) Samples were incubated at room temperature for 5 minutes and quenched with 200 µl ice-cold quench buffer ([…] KH2PO4, 6% Norite A, 10% TCA). The samples were kept on ice for 30 minutes and spun down for 5 minutes in a microcentrifuge. 50 µl aliquots of each supernatant were placed in a vial with 5 ml scintillation fluid and assayed for radioactivity. The hydrolysis of [γ-^32P]-GTP was measured in the presence and absence of photolyzed rhodopsin.
The apparent Michaelis constant was determined for As and Am by measuring the rate of GTP hydrolysis over a thousand-fold range of substrate concentrations. Km and Vmax were determined by construction of double reciprocal plots and regression analysis.

[2] = target: transducin (Tα) (Bos taurus, UniProt P04695); assay: GTPase assay, comparison protein; assay type: biochemical; conditions: mol/mol basis, submaximal velocity, in the presence of photoactivated rhodopsin
Sequence of transducin (Tα) (P04695 2-350 limits assumed): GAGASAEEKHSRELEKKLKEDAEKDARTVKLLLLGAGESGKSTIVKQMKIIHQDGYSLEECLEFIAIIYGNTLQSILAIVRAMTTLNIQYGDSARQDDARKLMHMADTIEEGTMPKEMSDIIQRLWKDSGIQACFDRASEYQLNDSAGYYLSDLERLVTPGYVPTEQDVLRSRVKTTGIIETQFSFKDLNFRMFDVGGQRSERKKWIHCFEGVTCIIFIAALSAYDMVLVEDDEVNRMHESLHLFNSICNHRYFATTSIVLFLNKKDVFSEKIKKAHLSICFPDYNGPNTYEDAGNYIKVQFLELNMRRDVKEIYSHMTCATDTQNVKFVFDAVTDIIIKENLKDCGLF
Description: as §1, §2
The GTPase rates for Am and transducin are additive when the two purified proteins are present in approximately equimolar concentrations.

[3] = target: T1, membrane-bound A-protein (Am), purified from bovine rod outer segments, N-terminus SEQ ID NO:1; assay: ATPase assay (hydrolysis of [γ-32P]ATP); assay type: biochemical; conditions: double reciprocal plots and regression analysis
Description: as §1, §2
Km and Vmax were determined by construction of double reciprocal plots and regression analysis.

[4] = target: T2, soluble A-protein (As), purified from bovine rod outer segments, N-terminus SEQ ID NO:2 (Bos taurus, UniProt P21457); assay: GTP analog binding assay (nitrocellulose filtration); conditions: 30 minutes, no cofactors
T2 sequence (P21457 2-202): T1 sequence (P21457 2-202)
Description: (§3) Assays of the binding of the GTP-analogs Gpp(NH)p and GTPγS (New England Nuclear) by both Am and AS were performed according to the methods of Northup et al. (J. Biol. Chem., 257:11416-11423 (1982)). Binding was carried out in a total volume of 100 µl of solution containing 5 to 10 µg purified A-protein, 15.3 µM 3H-Gpp(NH)p (10 µCi) or 1.32 µM GTPγS^35 (1 µCi) and buffer (100 mM NaCl, 0.1 mM EDTA, 20 mM Tris-HCl, pH 7.0). The samples were vortexed and incubated at 25°C for 30 minutes, quenched with 200 µl ice-cold buffer (0.5 M NaCl, 0.1 M Tris-HCl, 0.1% Tween 80™), and kept on ice for 30 minutes. The samples were placed onto nitrocellulose filters that had been previously washed with 2 ml of the same buffer. The filters were rinsed 5 times with 2 ml ice-cold buffer and assayed for radioactivity.

[5] = target: T1, membrane-bound A-protein (Am), purified from bovine rod outer segments, N-terminus SEQ ID NO:1; assay: as above; conditions: 30 minutes, no cofactors
Description: as §3

## Nc1nc2c(ncn2[C@@H]2O[C@H](COP(=O)(O)OP(=O)(O)OP(=O)(O)O)[C@@H](O)[C@H]2O)c(=O)[nH]1 [GTP, guanosine triphosphate]
[1]; double reciprocal plots and regression analysis
  Vmax:Am GTPase: 16.4 nmol/mgAmmin^-1
[1]; mol/mol basis, submaximal velocity, in the presence of photoactivated rhodopsin
  rate of GTP hydrolysis by Am: 0.458 GTP sec^-1/Am
[2]
  rate of GTP hydrolysis by transducin: 0.512 GTP sec^-1/Tα

## Nc1ncnc2c1ncn2[C@@H]1O[C@H](COP(=O)(O)OP(=O)(O)OP(=O)(O)O)[C@@H](O)[C@H]1O [ATP, adenosine triphosphate]
[3]
  Vmax:Am ATPase: 2.90 (±0.16) pmol/mg A-protein min^-1

## Nc1nc2c(ncn2[C@@H]2O[C@H](COP(=O)(O)OP(=O)(O)OP(O)(O)=S)[C@@H](O)[C@H]2O)c(=O)[nH]1 [GTPγS]
[4]; 1.32 µM GTPγS35, 25°C
  GTPγS bound by As: 0.47 mol GTP Analog/mol Protein
[5]; 1.32 µM GTPγS35, 25°C
  GTPγS bound by Am: 0.93 mol GTP Analog/mol Protein

## Nc1nc2c(ncn2[C@@H]2O[C@H](COP(=O)(O)OP(=O)(O)NP(=O)(O)O)[C@@H](O)[C@H]2O)c(=O)[nH]1 [Gpp(NH)p]
[4]; 15.3 µM 3H-Gpp(NH)p, 25°C
  Gpp(NH)p bound by As: 0.29 ± 0.08 mol GTP Analog/mol Protein
[5]; 15.3 µM 3H-Gpp(NH)p, 25°C
  Gpp(NH)p bound by Am: 0.57 ± 0.12 mol GTP Analog/mol Protein

From patent EP0803065B1, “A-PROTEIN AS A DIAGNOSTIC OF CANCER” (THE SCHEPENS EYE RESEARCH INSTITUTE, priority 1995, dated 1996)
